Experimental data as given in patent US20110123617A1, “CLIOQUINOL FOR THE TREATMENT OF HEMATOLOGICAL MALIGNANCIES” (priority 2007, published 2011).

What was measured:
[1] = system: chymotrypsin-like activity of the proteasome; experiment: Proteasome activity in cell lysates (Suc-LLVY-AMC cleavage); format: biochemical; conditions: cell lysates from leukemia and myeloma cell lines
Method: A) Proteasome activity of MDAY-D2 and JJN3 cellular extracts after two hours of treatment with clioquinol (CQ), CuCl2 (Cu), or an equimolar concentration of CQ and Cu. After treatment, the preferential chymotrypsin-like substrate Suc-LLVY-AMC was added and the rate of free AMC was measured over time with a florescent spectrophotometric plate reader (excitation=380 nm, emission=460 nm). B) Proteasome activity of intact MDAY-D2 and JJN3 cells after two hours of treatment with clioquinol (CQ), CuCl2 (Cu), or an equimolar concentration of CQ and Cu. After treatment, the preferential chymotrypsin-like substrate Suc-LLVY-AMC was added and the rate of free AMC was measured over time with a florescent spectrophotometric plate reader (excitation=380 nm, emission=460 nm). […] The chymotrypsin-like activity of the proteasome was measured by incubating equal amounts of protein with the preferential chymotrypsin-like substrate Suc-LLVY-AMC in assay buffer (50 mM Tris-HCl, pH 7.5, 150 mM NaCl) for two hours. After incubation, […] and the rate of free AMC was measured over time with a florescent spectrophotometric plate reader (excitation=380 nm, emission=460 nm). […] The chymotrypsin-like activity of the proteasome was measured by monitoring the rate of cleavage of the fluorescent substrate Suc-LLVY-AMC.

[2] = system: chymotrypsin-like activity of the proteasome; experiment: Proteasome activity after treatment of intact cell lines; format: cell-based; conditions: intact leukemia and myeloma cell lines
Method: A) Proteasome activity of MDAY-D2 and JJN3 cellular extracts after two hours of treatment with clioquinol (CQ), CuCl2 (Cu), or an equimolar concentration of CQ and Cu. After treatment, the preferential chymotrypsin-like substrate Suc-LLVY-AMC was added and the rate of free AMC was measured over time with a florescent spectrophotometric plate reader (excitation=380 nm, emission=460 nm). B) Proteasome activity of intact MDAY-D2 and JJN3 cells after two hours of treatment with clioquinol (CQ), CuCl2 (Cu), or an equimolar concentration of CQ and Cu. After treatment, the preferential chymotrypsin-like substrate Suc-LLVY-AMC was added and the rate of free AMC was measured over time with a florescent spectrophotometric plate reader (excitation=380 nm, emission=460 nm). Cellular proteins were extracted from cells with lysis buffer (50 mM HEPES pH 7.5, 150 mM NaCl, 2 mM ATP, and 1% Triton X-100). The chymotrypsin-like activity of the proteasome was measured by incubating equal amounts of protein with the preferential chymotrypsin-like substrate Suc-LLVY-AMC in assay buffer (50 mM Tris-HCl, pH 7.5, 150 mM NaCl) for two hours. After incubation, […] and the rate of free AMC was measured over time with a florescent spectrophotometric plate reader (excitation=380 nm, emission=460 nm). […]

[Cl][Cu][Cl] [copper, CuCl2]
rate of Suc-LLVY-AMC cleavage [1]: inhibited the rate of Suc-LLVY-AMC cleavage
chymotrypsin-like activity of the proteasome [2]: no effect on the function of proteasome
